Where two headings read alike, the source gives them in different places.
Tests used:
rodents following injury = settings: cited from earlier work; for most beneficial concentration for reducing edema, inflammation, oxidative stress and cell death within the penumbral region: IP, moderate to severe TBI model, 72 hours following injury
SH-SY5Y cells [1] = assay: Lactate dehydrogenase release after oxygen and glucose deprivation (OGD); format: cell-based; settings: for most effective concentrations to attenuate OGD-induced LDH release: both the 0 and 24 hour post-OGD time points
rats suffering from TBI = settings: cited from earlier work; for brain water content (measure of edema): 72 hours post-injury, ent-Prog 16 mg/kg
SH-SY5Y cells [2] = assay: LDH release after t-BOOH-induced oxidative stress; format: cell-based; settings: 25 μM t-BOOH 6 hours, 24 hours pre-treatment 1-80 μM; for LDH release following exposure to oxidative stress, group differences: ANOVA p=0.214
[3] = target: T1, classical progesterone receptor (PR) (Homo sapiens, UniProt P06401); settings: cited from earlier work
T1 sequence (P06401 1-933): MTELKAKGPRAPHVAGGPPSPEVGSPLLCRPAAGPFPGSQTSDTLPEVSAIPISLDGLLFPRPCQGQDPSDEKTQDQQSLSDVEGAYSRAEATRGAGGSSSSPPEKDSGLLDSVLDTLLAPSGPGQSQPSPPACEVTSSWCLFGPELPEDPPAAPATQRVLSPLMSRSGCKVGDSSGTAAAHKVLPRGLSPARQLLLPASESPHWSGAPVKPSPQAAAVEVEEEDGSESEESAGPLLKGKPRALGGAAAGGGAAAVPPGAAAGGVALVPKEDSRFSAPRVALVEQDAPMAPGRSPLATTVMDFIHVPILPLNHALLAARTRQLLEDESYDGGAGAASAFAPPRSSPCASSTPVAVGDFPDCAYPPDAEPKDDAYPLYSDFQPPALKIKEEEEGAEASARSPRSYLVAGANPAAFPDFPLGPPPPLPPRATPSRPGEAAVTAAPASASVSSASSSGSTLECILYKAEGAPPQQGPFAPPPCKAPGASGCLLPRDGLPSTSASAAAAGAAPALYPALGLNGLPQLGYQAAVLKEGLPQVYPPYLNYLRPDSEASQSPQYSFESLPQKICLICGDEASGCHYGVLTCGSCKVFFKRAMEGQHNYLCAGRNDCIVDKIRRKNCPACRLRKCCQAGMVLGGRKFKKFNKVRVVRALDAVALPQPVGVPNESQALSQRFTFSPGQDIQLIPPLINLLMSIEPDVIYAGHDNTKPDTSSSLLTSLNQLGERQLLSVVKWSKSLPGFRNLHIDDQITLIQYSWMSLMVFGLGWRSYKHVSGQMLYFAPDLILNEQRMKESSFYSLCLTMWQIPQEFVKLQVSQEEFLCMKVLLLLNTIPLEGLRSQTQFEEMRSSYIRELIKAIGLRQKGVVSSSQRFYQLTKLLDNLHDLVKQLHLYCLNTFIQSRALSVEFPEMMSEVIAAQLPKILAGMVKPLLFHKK

glutathione reductase [4] = settings: 72 hours post-injury, compared to all other groups, p<0.01; cited from earlier work
glutathione reductase [5] = assay: Glutathione reductase assay in rat model of mTBI (three repeated impacts); format: in vivo, Sprague Dawley rats; settings: 16 mg/kg intraperitoneal 15 minutes after last impact; tissue 24 hours after drug; one-way ANOVA p=0.675
Text: Glutathione reductase assay was used to measure the antioxidant capacity of PRV-001. Glutathione reductase (GR) is an enzyme which catalyzes the reduction of glutathione (GSSR) to reduced glutathione (GSH). GSH is an important intracellular antioxidant that reacts with oxygen free radicals which are harmful to the cell. High GSH to GSSR ratio is important to cellular survival and GR catalyzes the reduction, therefore becoming an important indicator of antioxidant capacity.
Sprague Dawley rats were obtained from Charles River Laboratories and subjected to three repeated impacts spaced 20 minutes apart. Prior to surgery, animals were anesthetized via inhalation with an initial induction with 5% isofluorane with oxygen at a rate of […] a Matrix 3000 Isofluorane Vaporizer (Midmark, Versailles, Ohio). […] The animal's scalp was shaved and cleaned with a 70% isopropanol solution and 10% betadine solution (Med-Vet International, Mettawa, Ill.). During the surgery, anesthesia was maintained at 2.5% isofluorane with oxygen at a rate of 500-1000 mL/min. The animal's head was then secured in a stereotaxic apparatus (David Kopf Instruments, Tujanga, Calif.) and a medial incision was performed and the scalp pulled back with bulldogs clips over the right frontal and parietal bone. […]

[6] = test system: moderate to severe TBI patients; settings: cited from earlier work
severe TBI patients = settings: six months; cited from earlier work
[7] = males; cited from earlier work
[8] = test system: rats that have suffered a concussion; assay: Morris Water Maze latency to platform in mTBI (concussion) model (FIG. 8); format: in vivo, rat; settings: vs vehicle-injured rats

Structure (SMILES): CC(=O)[C@@H]1CC[C@@H]2[C@H]3CCC4=CC(=O)CC[C@@]4(C)[C@@H]3CC[C@]21C [ent-Prog, ent-progesterone]
- most beneficial concentration for reducing edema, inflammation, oxidative stress and cell death within the penumbral region (rodents following injury): 16 mg/kg
- LDH release compared to control cells that did not undergo OGD (SH-SY5Y cells [1]): significantly higher
- LDH release compared to other treated groups (SH-SY5Y cells [1]): significant reduction
- LDH release compared to untreated cells exposed to OGD (SH-SY5Y cells [1]): significant reduction
- promoting cellular survival following oxygen and glucose deprivation, PRV-001 compared with progesterone (SH-SY5Y cells [1]): equally effective
- most effective concentrations to attenuate OGD-induced LDH release (SH-SY5Y cells [1]): 5 µM and 10 µM
- brain water content (measure of edema) (rats suffering from TBI): normalizes brain water content
- reduction of moderate to severe brain injury-induced edema, compared with Prog (rats suffering from TBI; moderate to severe TBI): equal efficacy to Prog
- oxidative stress-induced cellular damage and death (LDH release), trend (SH-SY5Y cells [2]): trend towards amelioration
- LDH release following exposure to oxidative stress, group differences (SH-SY5Y cells [2]): significant group differences were not observed
- activation of the classical progesterone receptor (PR) [3]: does not activate
- anti-oxidant activity of glutathione reductase (glutathione reductase [4]): significantly increases
- glutathione reductase activity (Δ Absorbance 340 nm/min), difference between groups (glutathione reductase [5]): failed to reveal a significant difference

Structure (SMILES): CC(=O)[C@H]1CC[C@H]2[C@@H]3CCC4=CC(=O)CC[C@]4(C)[C@H]3CC[C@]12C [Prog, progesterone]
- most beneficial concentration for reducing edema, inflammation, oxidative stress and cell death within the penumbral region (rodents following injury): 16 mg/kg
- edema (rodents following injury; both rodent sexes following injury): effectively attenuates
- inflammatory factors (TNF-a and IL-10) (rodents following injury; following injury): inhibiting
- presence of factors of cell death (caspase-3) and gliosis (GFAP) (rodents following injury; following injury): decreased
- Neurological Severity Score (motor and cognitive functioning) (rodents following injury; rats following injury): significant improvements
- LDH release compared to other treated groups (SH-SY5Y cells [1]): significant reduction
- promoting cellular survival following oxygen and glucose deprivation, PRV-001 compared with progesterone (SH-SY5Y cells [1]): equally effective
- LDH release compared to other treated groups (SH-SY5Y cells [1]; 0 h post-OGD, 1 μM progesterone vs 80 uM progesterone): significant reduction
- LDH release compared to other treated groups (SH-SY5Y cells [1]; 0 h post-OGD, 10 μM progesterone vs 80 μM progesterone): significant reduction
- LDH release compared to control cells that did not undergo OGD (SH-SY5Y cells [1]; 0 h post-OGD, 20 μM and 80 μM progesterone): significantly higher
- LDH release compared to other treated groups (SH-SY5Y cells [1]; 0 h post-OGD, 20 μM progesterone vs 80 μM progesterone): significant reduction
- LDH release compared to control cells not exposed to OGD (SH-SY5Y cells [1]; 0 h post-OGD, 1, 5, 10 and 40 μM progesterone): not significantly different
- LDH release compared to untreated cells exposed to OGD (SH-SY5Y cells [1]; 0 h post-OGD, all progesterone concentrations except 80 μM): significant reduction
- LDH release compared to control cells not exposed to OGD (SH-SY5Y cells [1]; 24 hours post-OGD, 1 μM and 40 μM progesterone): increased
- LDH release compared to other treated groups (SH-SY5Y cells [1]; 24 hours post-OGD, 10 μM progesterone vs 40 μM progesterone): significant reduction
- LDH release compared to untreated cells exposed to OGD (SH-SY5Y cells [1]; 24 hours post-OGD, 40 μM progesterone): except for those treated with 40 μM progesterone
- LDH release compared to other treated groups (SH-SY5Y cells [1]; 24 hours post-OGD, 80 μM progesterone vs 40 μM progesterone): significant reduction
- LDH release compared to control cells not exposed to OGD (SH-SY5Y cells [1]; 24 hours post-OGD, 5, 10, 20 and 80 μM progesterone): not significantly different
- LDH release compared to untreated cells exposed to OGD (SH-SY5Y cells [1]; 24 hours post-OGD, all progesterone groups except 40 μM): significant reduction
- most effective concentrations to attenuate OGD-induced LDH release (SH-SY5Y cells [1]): 5 µM and 10 µM
- 30 days post-injury outcomes (Glasgow Outcome Scale-Extended and Disability Rating Scale) ([6]; moderate TBI patients): better outcomes
- reduction in mortality ([6]; moderate to severe TBI patients, 72 hours of continuous intravenous Prog): 50%
- 30 days post-injury outcomes (Glasgow Outcome Scale-Extended and Disability Rating Scale) ([6]; patients with severe brain injuries): little measurable difference
- neurological outcomes long-term (severe TBI patients): better neurological outcomes
- conversion of testosterone to dihydrotestosterone [7]: inhibits
- size of reproductive organs [7]: reduces
- spermatogenesis [7]: suppresses
- brain water content (measure of edema) (rats suffering from TBI): normalizes brain water content
- latency to platform (Morris Water Maze) ([8]; post-acutely (15 minutes post)): decreases latency to platform
- latency to platform (Morris Water Maze) ([8]; prophylactically (15 minutes prior)): decreases latency to platform
- oxidative stress-induced cellular damage and death (LDH release), trend (SH-SY5Y cells [2]): trend towards amelioration
- LDH release following exposure to oxidative stress, group differences (SH-SY5Y cells [2]): significant group differences were not observed
- glutathione reductase activity (Δ Absorbance 340 nm/min), difference between groups (glutathione reductase [5]): failed to reveal a significant difference

Structure (SMILES): CC(=O)[C@H]1CC[C@H]2[C@@H]3CC[C@H]4C[C@H](O)CC[C@]4(C)[C@H]3CC[C@]12C [allopregnanolone]
- presence of factors of cell death (caspase-3) and gliosis (GFAP) (rodents following injury; following injury): decreased
- brain water content (measure of edema) (rats suffering from TBI): normalizes brain water content

— patent US20160184322A1 (priority 2013, published 2016)
